Assay results taken from patent publication US11465987B2, “Compounds for treatment of cancer” (ONCTERNAL THERAPEUTICS, INC., priority 2012, dated 2022).
Read-outs that look alike come from different tables or passages of the source.

Legend:
[1] = system: PC-3 human prostate cancer cell line; assay: cells; settings: Homo sapiens
Source text: (§1) Cells were stained with SRB solution.

[2] = system: melanoma and prostate cancer cell lines; assay: Antiproliferative activity summarised over the cell line panel (range or average); format: cell-based
PC-3 cells = assay: Apoptosis detection by ELISA (cytoplasmic DNA-histone complexes), PC-3; format: cell-based, human; settings: PC-3 and A375 cells, 24 h
Source text: Quantification of the Enrichment of Mono- and oligonucleosomes in the cytoplasm was used to determine the ability of the compounds to induce apoptosis (cell death detection ELISA PLUS, Roche, Germany) following the manufacturer's instructions.

[3] = system: NCI/ADR-RES (P-gp over-expressing resistant line of OVCAR-8); assay: Cytotoxicity (SRB) assay, NCI/ADR-RES; format: cell-based, human; settings: NCI/ADR-RES versus OVCAR-8
in vivo = settings: male, ICR, mouse, plasma, iv, 15 mg/kg
PC-3 xenograft = assay: In vivo PC-3 prostate tumor xenograft
[4] = system: tubulin (colchicine, vinblastine and paclitaxel binding sites); assay: MS competition binding assay; settings: competitive mass binding assay
Source text: Each reaction was run in triplicate.

[5] = system: PPC-1 human prostate cancer cell line; assay: Cytotoxicity (SRB) assay, PPC-1; format: cell-based; settings: Homo sapiens
Source text: as §1

CYP enzymes = assay: CYP enzyme inhibition assays
[6] = system: LNCaP human prostate cancer cell line; assay: Cytotoxicity (SRB) assay, LNCaP; format: cell-based; settings: Homo sapiens, LNCaP
Source text: as §1

[7] = system: confluent HUVEC monolayers; assay: Endothelial monolayer permeability assay; settings: FITC-dextran leakage, 1, 2, 4 h
PC-3_TxR xenograft = assay: In vivo PC-3/TxR xenograft; settings: PC-3/TxR mice; 17ya […], 55 30 mg/kg
[8] = Permeability (drug-like properties)
[9] = Pharmacokinetic study in ICR mice; settings: Mouse PK
[10] = Pharmacokinetic study in Sprague-Dawley rats; settings: Rat PK, PO 10 mg/kg
[11] = Pharmacokinetic study in beagle dogs; settings: Dog PK, PO 5 mg/kg
[12] = system: HUVEC capillary tube formation on Matrigel; assay: Capillary formation assay; format: cell-based, human; settings: at toxic concentration
[13] = system: HUVEC (Human Umbilical Vein Endothelial Cells); assay: Endothelial cell growth inhibition (SRB); format: cell-based; settings: HUVEC vs prostate cancer cells
[14] = Rotarod test (in vivo neurotoxicity); parameters: species or system mouse; settings: ICR mice, i.p. daily; 1h 5 or 15 mg/kg, vinblastine 0.5 mg/kg
Description: ICR mice received training three times a day for two days to enable them to stay on the rotating rod for >120 seconds at 12 rpm. Mice were then randomized by the length of time that they could stay on the rotating rod and divided into 7-8 mice per group. […] The rotarod test was performed twice a week. […] The rod speed was increased from […] to 40 rpm over a period of 5 min. Performance was measured as the length of time that a mouse could stay on the rotating rod.

[15] = system: MDA-MB-435 parental nonresistant melanoma cells; assay: Cytotoxicity (SRB) assay, MDA-MB-435; format: cell-based; settings: Homo sapiens
[16] = system: DU 145 human prostate cancer cell line; assay: Cytotoxicity (SRB) assay, DU 145; format: cell-based; settings: Homo sapiens
Source text: as §1

[17] = system: A375 human melanoma cell line; assay: Cytotoxicity (SRB) assay, A375; format: cell-based; settings: Homo sapiens
[18] = system: MDA-MB-435/LCCMDR1 multidrug-resistant melanoma cells; assay: Cytotoxicity (SRB) assay, MDA-MB-435/LCCMDR1; format: cell-based
MES-SA/DX5 cells = assay: Growth inhibition (SRB) assay, MES-SA/Dx5; format: cell-based; settings: Homo sapiens, MES-SA/Dx5
[19] = system: OVCAR-8 human ovarian cell line; assay: Cytotoxicity (SRB) assay, OVCAR-8; format: cell-based; settings: Table 14B, parental cell line, read-out: IC50 ± SEM, OVCAR-8
[20] = system: WM-164 human melanoma cell line; assay: Cytotoxicity (SRB) assay, WM-164; format: cell-based; settings: Homo sapiens, n = 3, read-out: IC50 ± SEM, WM-164
[21] = system: A375MA2 melanoma cell line; assay: Cytotoxicity assay, A375MA2; format: cell-based; settings: Table 14B, n = 3; read-out: IC50 ± SEM, A375MA2
HEK293-pcDNA3.1 cells = assay: Cytotoxicity assay, HEK293-pcDNA3.1 (parental line of the MRP/BCRP sublines); format: cell-based; settings: Table 14B; parental cell line; read-out: IC50 ± SEM, HEK293-pcDNA3.1
MES-SA cells = assay: Growth inhibition (SRB) assay, MES-SA; format: cell-based; settings: Homo sapiens
BCRP resistant cell line = assay: Cytotoxicity in BCRP-mediated resistant cell line; settings: read-out: IC50 ± SEM, HEK293-482R2
[22] = system: B16-F1 mouse melanoma cell line; assay: Cytotoxicity (SRB) assay, B16-F1; format: cell-based; settings: Mus musculus
[23] = read-out: IC50 PC-3, SRB assay, prostate cancer PC-3
[24] = read-out: IC50 ± SEM, PC-3, Table 21, n = 3
[25] = PPC-1, SRB assay, prostate cancer PPC-1, read-out: IC50 PPC-1
[26] = SRB assay, prostate cancer LNCaP, read-out: IC50 LNCaP

COc1cc(C(=O)c2csc(-c3ccc(O)cc3)n2)cc(OC)c1OC [2l, (2-(4-Hydroxyphenyl)thiazol-4-yl)(3,4,5-trimethoxyphenyl)methanone]
IC50 [1, 23]: 87 nM
IC50 [1, 24]: 87 ± 5 nM
IC50 ([2]; read-out: IC50 (range over tested cell lines)): 76 to 116 nM
concentration inducing apoptosis (PC-3 cells): greater than or equal to 200 nM
Resistance factor [3]: 0.4
AUC (in vivo): 2.6 µg·h/mL
Vd (in vivo): 16.5 L/kg
clearance (in vivo): 5.4 L/h/kg
half-life (in vivo): 12.3 h
% T/C (PC-3 xenograft; PC-3, 50 mg/kg i.p.): 34%
% T/C (PC-3 xenograft; Prostate (PC-3) xenograft, 50 mg/kg i.p.): 34%

COc1cc(C(=O)c2csc(Nc3ccc4[nH]ccc4c3)n2)cc(OC)c1OC [compound 55, (2-(1H-INDOL-5-YLAMINO)THIAZOL-4-YL)(3,4,5-TRIMETHOXYPHENYL)METHANONE]
competition for tubulin binding sites in words [4]: competed effectively with colchicine
IC50 [5, 25]: 15 ± 1 nM
IC50 ([1]; 96 h, read-out: Cytotoxicity IC50, PC-3, Table 15, mean ± SD, 96 h treatment, N = 3): 16 ± 1.5 nM
IC50 [1, 23]: 12 ± 1 nM
IC50 ([1]; read-out: IC50 in PC3, Table 16B): 28 nM
CYP enzyme inhibition in words (CYP enzymes): high IC50 values in micromolar range
IC50 ([2]; read-out: IC50 range against prostate cancer cells, range over prostate cancer cell lines): 7.5 to 24.1 nM
IC50 [6, 26]: 13 ± 1 nM
permeability of endothelial cell monolayer in words [7]: increased permeability
body weight in words (PC-3_TxR xenograft): gaining weight
permeability in words [8]: more than adequate permeability values
t1/2 ([9]; IV 10 mg/kg): 0.767 h
F ([9]; PO 20 mg/kg): 34%
t1/2 ([9]; PO 20 mg/kg): 2.1 h
F [10]: 24%
t1/2 [10]: 5.83 ± 3.57 h
F [11]: 36%

COc1cccc2c1C(=O)c1c(O)c3c(c(O)c1C2=O)C[C@@](O)(C(=O)CO)C[C@@H]3O[C@H]1C[C@H](N)[C@H](O)[C@H](C)O1 [doxorubicin]
capillary construction in words [12]: did not affect the capillary construction
times more active against endothelial cells than against cancer cells [13]: not specific to endothelial cells
permeability of endothelial cell monolayer in words [7]: did not induce any change

CC[C@]1(O)C[C@@H]2CN(CCc3c([nH]c4ccccc34)[C@@](C(=O)OC)(c3cc4c(cc3OC)N(C)[C@H]3[C@@](O)(C(=O)OC)[C@H](OC(C)=O)[C@]5(CC)C=CCN6CC[C@]43[C@@H]65)C2)C1 [vinblastine, Vinblastine, reference compound]
competition for tubulin binding sites in words [4]: did not inhibit the colchicine-tubulin binding
rotarod performance in words [14]: gradually reduced the time
IC50 ([15]; Table 14A, sensitive parent cell line, read-out: IC50 ± SEM, MDA-MB-435 (converted)): 0.4 ± 0.1 nM
IC50 ([15]; read-out: IC50 nonresistant melanoma cell line): 0.5 to 10 nM
IC50 ([16]; DU-145, SRB assay, prostate cancer DU 145, read-out: IC50 DU 145): 1.8 nM
IC50 ([16]; DU-145, Table 7, read-out: IC50, DU-145): 2.6 ± 1 nM
IC50 ([16]; DU-145, Table 21, n = 3, read-out: IC50 ± SEM, Du-145): 1.8 ± 1.1 nM
IC50 ([17]; A-375, SRB assay, human melanoma A375, read-out: IC50 A375): 1 nM
IC50 ([17]; A-375, Table 14B, n = 3, read-out: IC50 ± SEM, A375 (converted)): 1 ± 0.1 nM
IC50 ([18]; Homo sapiens, MDA-MB-435/LCCMDR1, read-out: IC50 MDR melanoma cell line): 277 to 658 nM
P-gp substrate / multidrug resistance in words ([18]; MDR melanoma line vs sensitive parent line): substrates for P-glycoprotein (P-gp)
IC50 ([1]; read-out: IC50, PC-3, Table 7): 1.4 ± 0.3 nM
IC50 [1, 23]: 2.1 nM
IC50 [1, 24]: 2.1 ± 0.2 nM
IC50 ([6]; Table 7, read-out: IC50, LNCaP): 3.4 ± 0.9 nM
IC50 (MES-SA/DX5 cells; SRB assay): 16 nM
IC50 (MES-SA/DX5 cells; Table 7, P-gp over-expressed): 45.7 ± 5.3 nM
IC50 [19]: 2 ± 0.1 nM
IC50 ([20]; WM164, Table 14A): 0.6 ± 0.1 nM
IC50 ([20]; WM164, Table 14B): 0.6 ± 0.1 nM
IC50 [21]: 1 ± 0.2 nM
IC50 (HEK293-pcDNA3.1 cells): 5 ± 0.1 nM
IC50 (MES-SA cells; SRB assay): 1.4 nM
IC50 (MES-SA cells; Table 7, parental line): 2.3 ± 0.8 nM
% T/C (PC-3 xenograft; PC-3, 0.5 mg/kg q2d, day 22): 29%
IC50 (BCRP resistant cell line): 25 ± 1 nM
IC50 ([22]; B16-F1, SRB assay, mouse melanoma B16-F1, read-out: IC50 B16-F1): 4.7 nM
IC50 ([22]; B16-F1, Table 14A, n = 3, read-out: IC50 ± SEM, B16-F1 (converted)): 4.7 ± 0.7 nM
IC50 ([22]; B16-F1, Table 14B, n = 3, read-out: IC50 ± SEM, B16-F1 (converted)): 5 ± 1 nM
IC50 ([22]; B16-F1, Table 21, n = 3, read-out: IC50 ± SEM, B16-F1 (converted)): 4.7 ± 0.7 nM
